{
  "source": "patent US20120088773A1",
  "about": "“Circadian rhythm modulation” (priority 2010, published 2012)",
  "origin": "cited, not measured here",
  "key": {"[1]": {"tested_on": "dopamine D(2) receptor", "conditions": "200 mg oral caffeine compared to oral placebo"}, "[2]": {"tested_on": "D2 dopamine-mediated rotational behavior", "conditions": "prior administration, dopamine-depleted rats"}, "[3]": {"conditions": "according to the CDC"}},
  "data": [
    {"smiles": "CC(=O)N[C@@H](Cc1ccc(O)cc1)C(=O)O", "note": "[N-acetyl-L-tyrosine]", "values": [
      {"measurement": "water solubility", "result": "very water soluble"}
    ]},
    {"smiles": "Cn1c(=O)c2c(ncn2C)n(C)c1=O", "note": "[caffeine]", "values": [
      {"measurement": "ventral striatal [(11)C]raclopride binding potential", "setting": "[1]", "result": "trend-level increase"},
      {"measurement": "decrease in midline thalamic binding potential", "setting": "[1]; p<0.001", "result": 12, "unit": "%"},
      {"measurement": "D2 dopamine-mediated rotational behavior", "setting": "[2]", "result": "can sensitize D2 dopamine-mediated rotational behavior"}
    ]},
    {"smiles": "C=C1CC[C@H](O)C/C1=C/C=C1\\CCC[C@]2(C)[C@@H]([C@H](C)CCCC(C)C)CC[C@@H]12", "note": "[vitamin D3, cholecalciferol]", "values": [
      {"measurement": "half-life", "setting": "[3]", "result": "24 to 48", "unit": "h"}
    ]}
  ]
}
